Assay results from patent US5086066A, “Method of providing anxiolytic and antipsychotic treatment with substituted benzamides” (priority 1988, dated 1992).

Columns and labels:
rats = assay: hyperactivity induced by injection of amphetamine into the nucleus accumbens (motor activity), antipsychotic activity; assay type: in vivo
Procedure: Tests were conducted to measure the antipsychotic activity of the compounds of the invention. In particular, the hyperactivity induced in rats by the perfusion of amphetamine into the nucleus accumbens was evaluated. This test consists in determining the effect of the compounds of the invention on hyperactivity produced in rats by the injection of amphetamine into the nucleus accumbens. Hyperactivity was induced by injecting 20 μg of amphetamine bilaterally into the nucleus accumbens. The compounds of the invention were administered subcutaneously at doses of 1 mg/kg and 10 mg/kg, 40 minutes before the injection of amphetamine. For each dose of test product, a group of 5 animals was used. A group treated only with amphetamine and a reference group which received only an inert vehicle comprised 10 animals.
Immediately after the injection of amphetamine, the rats were placed in individual cages equipped with photoelectric cells. Motor activity, characterized by the number of shifts from place to place in these cages, was determined by the number of interruptions of a light beam striking these cells. The measurements were made during the 80 minutes following the injection of amphetamine. The results, expressed as the number of shifts from place to place per 10-minute period, are collated in Table 2.

mice = assay: two compartment (dark and light) box test, anxiolytic activity; assay type: in vivo; details: for % time in black compartment / Black compartment rearings/5 min / Black compartment transits/5 min / Delay white → black / White compartment rearings/5 min / White compartment transits/5 min: 40 min after administration, S.E.M. <12.6%, n = 5; for minimal effective dose: Mus musculus, sc, 40 min, subcutaneous, mice, read-out: dose at and above which anxiolytic activity is manifested
Procedure: The two compartment box test was conducted in mice to evaluate anxiolytic activity. This test is based on a natural aversion of mice to light. The apparatus used is a box containing two compartments, one of which is dark (labeled "black compartment" in the Table 1) and the other illuminated (labeled "white compartment" in Table 1). The apparatus is designed to allow the animal to choose between staying in either of the two compartments. Under normal conditions, the mice avoid light and usually remain in the dark compartment. Under the influence of an anxiolytic agent, however, exploration of the illustrated compartment predominates. The test consists of placing each mouse in the center of the illuminated compartment and observing the animal's behavior by video system for 5 minutes. The number of exploratory rearings and the number of displacements (the crossing of lines traced on the floor of each compartment constitute "passages") are then recorded for each compartment. An anxiolytic effect induced by a drug, such as diazepam, is characterized by an increase in the number of exploratory rearings and in the number of passages into the illuminated compartment. The compounds of the invention were injected subcutaneously at variable doses, each dose being administered to a group of 5 mice.

[1] = acute toxicity, median lethal dose (LD50) intravenously; details: mouse, in vivo, iv
Text: The compounds of the invention were also subjected to a study of acute toxicity when injected intravenously in male mice and female mice, which enabled the median lethal doses (LD50) to be determined.

With CC(N)Cc1ccccc1 (stereo not drawn) [Amphetamine, amphetamine, reference compound] the Motor activity (rats; amphetamine alone 20 μg bilaterally into nucleus accumbens, time 10 min) was 31 ± 4 shifts from place to place/10, the Motor activity (rats; amphetamine alone 20 μg bilaterally into nucleus accumbens, time 20 min) was 48 ± 5 shifts from place to place/10 and the Motor activity (rats; amphetamine alone 20 μg bilaterally into nucleus accumbens, time 30 min) was 66 ± 7 shifts from place to place/10. The Motor activity (rats; amphetamine alone 20 μg bilaterally into nucleus accumbens, time 40 min) was 59 ± 7 shifts from place to place/10, the Motor activity (rats; amphetamine alone 20 μg bilaterally into nucleus accumbens, time 50 min) was 36 ± 5 shifts from place to place/10 and the Motor activity (rats; amphetamine alone 20 μg bilaterally into nucleus accumbens, time 60 min) was 29 ± 4 shifts from place to place/10. For the same molecule, the Motor activity (rats; amphetamine alone 20 μg bilaterally into nucleus accumbens, time 70 min) was 19 ± 3 shifts from place to place/10 and the Motor activity (rats; amphetamine alone 20 μg bilaterally into nucleus accumbens, time 80 min) was 8 ± 3 shifts from place to place/10.
With CCN(CC)CCNC(=O)c1cc(Cl)c(NC2=NC(C)CN2)cc1OC (stereo not drawn) [Compound 1, N-[2-(diethylamino)ethyl]-2-methoxy-4-[(4,5-dihydro-4-methyl-1H-imidazol-2-yl)amino]-5-chlorobenzamide] the “% time in black compartment” value (mice; 0.01 mg/kg s.c.) was 36%, the “Black compartment rearings/5 min” value (mice; 0.01 mg/kg s.c.) was 16 rearings/5 min and the “Black compartment transits/5 min” value (mice; 0.01 mg/kg s.c.) was 37 transits/5 min. For the same molecule, the “Delay white → black” value (mice; 0.01 mg/kg s.c.) was 19 s, the “White compartment rearings/5 min” value (mice; 0.01 mg/kg s.c.) was 57 rearings/5 min and the “White compartment transits/5 min” value (mice; 0.01 mg/kg s.c.) was 77 transits/5 min. The “% time in black compartment” value (mice; 0.1 mg/kg s.c.) was 27%, the “Black compartment rearings/5 min” value (mice; 0.1 mg/kg s.c.) was 14 rearings/5 min and the “Black compartment transits/5 min” value (mice; 0.1 mg/kg s.c.) was 23 transits/5 min. For the same molecule, the “Delay white → black” value (mice; 0.1 mg/kg s.c.) was 22 s, the “White compartment rearings/5 min” value (mice; 0.1 mg/kg s.c.) was 73 rearings/5 min and the “White compartment transits/5 min” value (mice; 0.1 mg/kg s.c.) was 79 transits/5 min. The minimal effective dose (mice) was at least 0.01 mg/kg, the LD50 ([1]; female mice) was 24 mg/kg and the LD50 ([1]; male mice) was 19.5 mg/kg. The Motor activity (rats; 1 mg/kg s.c. 40 min before amphetamine 20 μg, time 10 min) was 49 ± 9 shifts from place to place/10 minutes, the Motor activity (rats; 1 mg/kg s.c. 40 min before amphetamine 20 μg, time 20 min) was 35 ± 3 shifts from place to place/10 minutes and the Motor activity (rats; 1 mg/kg s.c. 40 min before amphetamine 20 μg, time 30 min) was 45 ± 8 shifts from place to place/10 minutes. The Motor activity (rats; 1 mg/kg s.c. 40 min before amphetamine 20 μg, time 40 min) was 40 ± 8 shifts from place to place/10 minutes, the Motor activity (rats; 1 mg/kg s.c. 40 min before amphetamine 20 μg, time 50 min) was 11 ± 3 shifts from place to place/10 minutes and the Motor activity (rats; 1 mg/kg s.c. 40 min before amphetamine 20 μg, time 60 min) was 12 ± 2 shifts from place to place/10 minutes. For the same molecule, the Motor activity (rats; 1 mg/kg s.c. 40 min before amphetamine 20 μg, time 70 min) was 8 ± 1 shifts from place to place/10 minutes, the Motor activity (rats; 10 mg/kg s.c. 40 min before amphetamine 20 μg, time 10 min) was 27 ± 4 shifts from place to place/10 minutes and the Motor activity (rats; 10 mg/kg s.c. 40 min before amphetamine 20 μg, time 20 min) was 27 ± 6 shifts from place to place/10 minutes. The Motor activity (rats; 10 mg/kg s.c. 40 min before amphetamine 20 μg, time 30 min) was 13 ± 3 shifts from place to place/10 minutes, the Motor activity (rats; 10 mg/kg s.c. 40 min before amphetamine 20 μg, time 40 min) was 11 ± 2 shifts from place to place/10 minutes and the Motor activity (rats; 10 mg/kg s.c. 40 min before amphetamine 20 μg, time 50 min) was 8 ± 2 shifts from place to place/10 minutes.
With C=CCN1CCCC1CNC(=O)c1cc(Cl)c(NC2=NC(C)CN2)cc1OC (stereo not drawn) [Compound 2, N-(1-allyl-2-pyrrolidinylmethyl)-2-methoxy-4-[(4,5-dihydro-4-methyl-1H-imidazol-2-yl)amino]-5-chlorobenzamide] the “% time in black compartment” value (mice; 0.01 mg/kg s.c.) was 49%, the “Black compartment rearings/5 min” value (mice; 0.01 mg/kg s.c.) was 27 rearings/5 min and the “Black compartment transits/5 min” value (mice; 0.01 mg/kg s.c.) was 30 transits/5 min. The “Delay white → black” value (mice; 0.01 mg/kg s.c.) was 18 s, the “White compartment rearings/5 min” value (mice; 0.01 mg/kg s.c.) was 43 rearings/5 min and the “White compartment transits/5 min” value (mice; 0.01 mg/kg s.c.) was 51 transits/5 min. The “% time in black compartment” value (mice; 0.1 mg/kg s.c.) was 29%, the “Black compartment rearings/5 min” value (mice; 0.1 mg/kg s.c.) was 20 rearings/5 min and the “Black compartment transits/5 min” value (mice; 0.1 mg/kg s.c.) was 25 transits/5 min. The “Delay white → black” value (mice; 0.1 mg/kg s.c.) was 20 s, the “White compartment rearings/5 min” value (mice; 0.1 mg/kg s.c.) was 83 rearings/5 min and the “White compartment transits/5 min” value (mice; 0.1 mg/kg s.c.) was 80 transits/5 min. The minimal effective dose (mice) was at least 0.01 mg/kg, the LD50 ([1]; female mice) was 42 mg/kg and the LD50 ([1]; male mice) was 42 mg/kg.
For CCN(CC)CCNC(=O)c1cc(Br)c(NC2=NC(C)CN2)cc1OC (stereo not drawn) [Compound 3, N-[2-(diethylamino)ethyl]-2-methoxy-4-[(4,5-dihydro-4-methyl-1H-imidazol-2-yl)amino]-5-bromo-benzamide], the “% time in black compartment” value (mice; 0.1 mg/kg s.c.) was 30%, the “Black compartment rearings/5 min” value (mice; 0.1 mg/kg s.c.) was 18 rearings/5 min and the “Black compartment transits/5 min” value (mice; 0.1 mg/kg s.c.) was 18 transits/5 min. The “Delay white → black” value (mice; 0.1 mg/kg s.c.) was 23 s, the “White compartment rearings/5 min” value (mice; 0.1 mg/kg s.c.) was 97 rearings/5 min and the “White compartment transits/5 min” value (mice; 0.1 mg/kg s.c.) was 104 transits/5 min. For the same molecule, the LD50 ([1]; female mice) was 24 mg/kg and the LD50 ([1]; male mice) was 22 mg/kg.
For CCN1CCCC1CNC(=O)c1cc(Cl)c(NC2=NC(C)CN2)cc1OC (stereo not drawn) [Compound 5, N-(1-ethyl-2-pyrrolidinylmethyl)-2-methoxy-4-[(4,5-dihydro-4-methyl-1H-imidazol-2-yl)amino]-5-chlorobenzamide], the “% time in black compartment” value (mice; 1 mg/kg s.c.) was 32%, the “Black compartment rearings/5 min” value (mice; 1 mg/kg s.c.) was 14 rearings/5 min and the “Black compartment transits/5 min” value (mice; 1 mg/kg s.c.) was 19 transits/5 min. For the same molecule, the “Delay white → black” value (mice; 1 mg/kg s.c.) was 23 s, the “White compartment rearings/5 min” value (mice; 1 mg/kg s.c.) was 65 rearings/5 min and the “White compartment transits/5 min” value (mice; 1 mg/kg s.c.) was 89 transits/5 min. For the same molecule, the “% time in black compartment” value (mice; 10 mg/kg s.c.) was 32%, the “Black compartment rearings/5 min” value (mice; 10 mg/kg s.c.) was 15 rearings/5 min and the “Black compartment transits/5 min” value (mice; 10 mg/kg s.c.) was 16 transits/5 min. For the same molecule, the “Delay white → black” value (mice; 10 mg/kg s.c.) was 22 s, the “White compartment rearings/5 min” value (mice; 10 mg/kg s.c.) was 68 rearings/5 min and the “White compartment transits/5 min” value (mice; 10 mg/kg s.c.) was 80 transits/5 min.
For CCN(CC)CCNC(=O)c1cc(Br)c(NC2=NCCN2)cc1OC [Compound 6, N-[2-(diethylamino)ethyl]-2-methoxy-4-[(4,5-dihydro-1H-imidazol-2-yl)amino]-5-bromobenzamide], the “% time in black compartment” value (mice; 0.1 mg/kg s.c.) was 27%, the “Black compartment rearings/5 min” value (mice; 0.1 mg/kg s.c.) was 39 rearings/5 min and the “Black compartment transits/5 min” value (mice; 0.1 mg/kg s.c.) was 50 transits/5 min. For the same molecule, the “Delay white → black” value (mice; 0.1 mg/kg s.c.) was 13 s, the “White compartment rearings/5 min” value (mice; 0.1 mg/kg s.c.) was 40 rearings/5 min and the “White compartment transits/5 min” value (mice; 0.1 mg/kg s.c.) was 48 transits/5 min. For the same molecule, the LD50 ([1]; female mice) was 118 mg/kg and the LD50 ([1]; male mice) was 103 mg/kg.
In the case of CCN(CC)CCNC(=O)c1cc(Cl)c(NC2=NCCO2)cc1OC [Compound 7, N-[2-(diethylamino)ethyl]-2-methoxy-4-[(4,5-dihydro-2-oxazolyl)amino]-5-chlorobenzamide], the “% time in black compartment” value (mice; 0.1 mg/kg s.c.) is reported as 27%, the “Black compartment rearings/5 min” value (mice; 0.1 mg/kg s.c.) is reported as 16 rearings/5 min and the “Black compartment transits/5 min” value (mice; 0.1 mg/kg s.c.) is reported as 16 transits/5 min. For the same molecule, the “Delay white → black” value (mice; 0.1 mg/kg s.c.) was 24 s, the “White compartment rearings/5 min” value (mice; 0.1 mg/kg s.c.) was 69 rearings/5 min and the “White compartment transits/5 min” value (mice; 0.1 mg/kg s.c.) was 68 transits/5 min.
